In article PMC12737779, “Concurrent Assessment of Synthetic and Natural Compounds on the Proliferation of Toxoplasma gondii in In Vitro Models” (Tropical Medicine and Infectious Disease, 2025):

Columns and labels:
Vero cells = assay: Cytotoxicity in Vero cells by Alamar Blue assay; assay type: cell-based, African green monkey; conditions: 24 h
Experimental: (§1) The Vero cell line was seeded in 96-well plates at approximately 20,000 cells per well until approximately 100% confluence was reached. […] All compounds were evaluated at elevated concentrations, diluted in 1% DMSO, to determine the maximum concentration at which they could remain in solution for experimental purposes. It was observed that most compounds were not fully soluble at 320 µM. […] Consequently, all further experiments were initiated from this concentration. […] Four hours later, fluorescence was measured using a BioTek Synergy HTX plate reader at 530/25 nm excitation and 590/25 nm emission. […] A color change in the growth control well to pink indicated proper cell growth, and no color change in the sterile control well indicated the absence of contaminants. The normalized viability percentages (Y-values) of viable host cells and viable T. gondii GFP RH tachyzoites were calculated from the mean ± standard deviation for each concentration evaluated in triplicate. The concentration values (X-axis) were subjected to logarithmic transformation to fit the data to a sigmoidal curve. The half-maximal cytotoxic concentration (CC50) was estimated as the interpolated concentration value on the X-axis corresponding to the response midway between the fitted top and bottom plateaus of the curve. Similarly, the half-maximal inhibitory concentration (IC50) was determined as the concentration at which the response was halfway between the top and the bottom plateaus. Data analysis and visualization were conducted using GraphPad Prism version 8.4.3 (GraphPad Software, San Diego, CA, USA). The selectivity index, also known as the Therapeutic Index, was calculated using the formula: SI = CC50/IC50.

[1] = tested on: T. gondii RH GFP tachyzoites; assay: T. gondii RH GFP tachyzoite viability assay, 72 h continuous exposure; assay type: cell-based, Toxoplasma gondii; conditions: for IC50: 72 h continuous exposure, GFP tachyzoite viability in Vero cells; for SI: CC50/IC50, 72 h continuous exposure
Experimental: Approximately 10,000 tachyzoites of the T. gondii RH GFP strain were quantified using a hemocytometer and subsequently inoculated into Vero cells at full confluence per well in a 96-well plate using a medium conducive to parasite maintenance. Following our laboratory protocols and the methodologies outlined in previous studies, we routinely utilize an inoculum of 10,000 parasites for the Toxoplasma gondii RH-GFP tachyzoite viability assay, which is conducted over a 72 h duration. This parasite density ensures reliable detection of tachyzoite growth and viability while minimizing the likelihood of detachment or any degree of disruption to the host cell monolayer. Concurrently, derivatives of pyrazoline, pyrazole, and thiazolidinone nucleus compounds were introduced at […], with 1:2 dilutions commencing at 160 μM and decreasing to a minimum concentration of 1.25 μM in triplicate. The controls employed in this experiment included non-infected cells (NC), 10 μM pyrimethamine (Pyr), 1% dimethyl sulfoxide (DMSO), and infected cells without treatment (IC). Seventy-two hours post-infection, each well in the 96-well plate was examined using a 10× objective on the EVOS FL Color Imaging System with the GFP fluorescent light cube, and images were captured approximately at the center of each well. The parasites that glowed green were considered viable, and the percentage of tachyzoite viability was compared with that of the untreated parasites. Subsequently, images were recorded, contrast was adjusted, and a semiquantitative digital analysis was conducted using ImageJ v1.54d and the triangle auto-threshold method to determine the number of viable GFP fluorescent tachyzoites per image, as previously described. The percentage of viable parasites was calculated using the formula: Fluorescence of the sample with treatment URF × 100/fluorescence of the control without treatment, where URF = unit relatives of fluorescence calculated with the formula: (sample fluorescence/fluorescence in blank well) × 100.
(§2) The normalized viability percentages (Y-values) of viable host cells and viable T. gondii GFP RH tachyzoites were calculated from the mean ± standard deviation for each concentration evaluated in triplicate. The concentration values (X-axis) were subjected to logarithmic transformation to fit the data to a sigmoidal curve. The half-maximal cytotoxic concentration (CC50) was estimated as the interpolated concentration value on the X-axis corresponding to the response midway between the fitted top and bottom plateaus of the curve. Similarly, the half-maximal inhibitory concentration (IC50) was determined as the concentration at which the response was halfway between the top and the bottom plateaus. Data analysis and visualization were conducted using GraphPad Prism version 8.4.3 (GraphPad Software, San Diego, CA, USA). The selectivity index, also known as the Therapeutic Index, was calculated using the formula: SI = CC50/IC50.

[2] = tested on: T. gondii RH GFP tachyzoites; assay: T. gondii RH GFP tachyzoite viability following 24 h pretreatment of host cells; assay type: cell-based, Toxoplasma gondii; conditions: for Host Cell Pre-Treatment SI: CC50/IC50, host cell pre-treatment; for IC50: Vero cells pretreated 24 h, read 72 h post-infection, read-out: Host Cell Pre-Treatment IC50
Experimental: Subsequently, 10,000 T. gondii RH GFP tachyzoites were introduced into each well. The experimental controls included non-infected cells (NC), 10 μM pyrimethamine (Pyr), 1% dimethyl sulfoxide (DMSO), and infected cells without treatment (IC). After 24 h of host cell treatment, the medium was replaced with a compound-free medium for parasite maintenance. Seventy-two hours post-infection, each well of the 96-well plate was examined using a 10× objective on an Evos FL Auto Cell Imaging System microscope (Life Technologies, Carlsbad, CA, USA). A semiquantitative digital analysis was conducted using ImageJ v1.54d and the triangle auto-threshold method to quantify the number of viable GFP fluorescent tachyzoites per image, as previously described.
as §2

[3] = tested on: T. gondii RH GFP tachyzoites; assay: T. gondii RH GFP tachyzoite viability following 3 h pretreatment of parasites; assay type: cell-based, Toxoplasma gondii; conditions: for Tachyzoite Pre-Treatment SI: CC50/IC50, tachyzoite pre-treatment; for IC50: read-out: Tachyzoite Pre-Treatment IC50
Experimental: Following treatment, tachyzoites were centrifuged at 712× g for 10 min, and the supernatant was discarded. Fresh medium devoid of compounds was then added to resuspend the parasites. Subsequently, 10,000 pretreated T. gondii RH GFP tachyzoites were introduced into each well of a 96-well plate containing Vero cells at 100% confluence. Seventy-two hours post-infection, each well of the 96-well plate was examined using a 10× objective on an EVOS microscope. Semiquantitative digital analysis was performed using ImageJ v1.54d, employing the triangle auto-threshold method to quantify the number of viable GFP fluorescent tachyzoites per image, as previously described.
as §2

[4] = Cytotoxicity in Vero cells by Alamar Blue assay; assay type: cell-based, African green monkey; conditions: African green monkey
Experimental: as §1

[5] = tachyzoites pretreated 3 h, read 72 h post-infection
[6] = Toxoplasma gondii, tachyzoites pretreated 3 h, read 72 h post-infection

Structure (SMILES)	CC50 (Vero cells)	IC50 [1]	SI [1]	Host Cell Pre-Treatment SI [2]	IC50 [2]	Tachyzoite Pre-Treatment SI [3]	IC50 [3, 5]	CC50 at 24 h [4]	IC50 ([1]; Toxoplasma gondii)	IC50 ([2]; Toxoplasma gondii)	IC50 [3, 6]	IC50 ([3]; Toxoplasma gondii)
COc1cc(C2=NNC(c3ccc(F)cc3)C2)ccc1O (stereo not shown) [Compound 1]	132 µM	6.7 µM	19.6	17.5	7.5 µM	5.6	23.4 µM	–	–	–	–	–
COc1cc(C2=NNC(c3ccc(Cl)cc3)C2)ccc1O (stereo not shown) [Compound 2]	123 µM	–	73.3	16.4	7.5 µM	18.6	6.6 µM	–	–	–	–	–
COc1ccc(C2CC(c3ccc(O)c(OC)c3)=NN2)cc1 (stereo not shown) [Compound 3]	> 160 µM	18.1 µM	>8.3	–	–	–	–	–	–	–	–	–
COc1cc(C2=NNC(c3ccc4c(c3)OCO4)C2)ccc1O (stereo not shown) [Compound 4]	154 µM	–	42.6	28.9	5.3 µM	4.8	31.6 µM	–	–	–	–	–
CC(C)(C)n1nc(-c2c[nH]c3ccccc23)c(C#N)c1-c1c(Cl)cccc1Cl [Compound 5]	> 160 µM	14 µM	>11.4	–	–	–	–	–	–	–	–	–
CC(C)(C)n1nc(-c2c[nH]c3ccccc23)c(C#N)c1-c1ccc(Br)cc1 [Compound 8]	> 160 µM	21 µM	>7.6	–	–	–	–	–	–	–	–	–
CC(=NO)C(C)=NN=C1NC(=O)/C(=C/c2ccccc2O)S1 [Compound 9]	–	–	>25.9	>14.9	–	>164.9	–	> 160 µM	6.1 µM	10.7 µM	0.9 µM	–
CC(=NO)C(C)=NN=C1NC(=O)C(=Cc2ccc(O)cc2)S1 [Compound 10]	61.2 µM	5.7 µM	10.6	3.9	15.4 µM	12.4	4.9 µM	–	–	–	–	–
CC(=N/O)/C(C)=N\N=C1/NC(=O)/C(=C/c2ccc(C#N)cc2)S1 [Compound 11]	–	–	14.5	2.3	–	1.8	–	53.2 µM	3.6 µM	22.5 µM	29.5 µM	–
COc1ccc(C=C2SC(=NN=C(C)C(C)=NO)NC2=O)cc1 [Compound 12]	40.3 µM	3.9 µM	10.2	3.8	10.5 µM	6.9	5.8 µM	–	–	–	–	–
CC(=N/O)/C(C)=N\N=C1/NC(=O)/C(=C/c2ccc(O)c(O)c2)S1 [Compound 13]	> 160 µM	8.8 µM	>18.1	>0.6	–	>8.0	19.8 µM	–	–	–	–	–
CC(=N/O)/C(C)=N\N=C1/NC(=O)/C(=C/c2ccc(Cl)cc2)S1 [Compound 14]	> 160 µM	142 µM	>1.1	–	–	–	–	–	–	–	–	–
CC(=N/O)/C(C)=N\N=C1\NC(=O)/C(=C/c2cc3ccccc3[nH]c2=O)S1 [Compound 15]	–	–	>16.8	>2.9	–	>39.7	–	> 160 µM	9.5 µM	54.4 µM	4 µM	–
CCc1nc(N)nc(N)c1-c1ccc(Cl)cc1 [Pyrimethamine, pyrimethamine, reference compound]	–	–	>666	>190	–	>32.4	–	> 200 µM	0.3 µM	1 µM	–	6.1 µM
